The test is described as follows: blockers of an Epstein-Barr virus protein-peptide interaction – biochemical, fluorescence polarization, dose response (AID 1419). The settings on record: cell-free protein-peptide binding, 2 h; for fold change: measured here: P channel fold over control, at 54 µM. (In general: Fluorescence polarisation rises when a labelled molecule tumbles more slowly, as on binding a larger partner.)

For `O=C1c2cccc3c(N4CCCCC4)ccc(c23)C(=O)N1c1ccccn1`, the concentration for half-maximal inhibition (IC50) is less than 0.42 µM and the fold change turned out to be 11.5.

Take `CCc1cc[n+](-c2nc3ccccc3nc2[N-]S(=O)(=O)c2ccc(Br)s2)cc1`: the half-maximal inhibitory concentration (IC50) was 3.71 µM and the fold change was 3.49.

With `Cc1nn(-c2ccccc2)c(N2CCCC2)c1/C=C1\N=C(c2ccccc2)OC1=O`, the half-maximal inhibitory concentration (IC50) was 25.5 µM and the fold change turned out to be 3.5.

On to `Nc1ccc(N)c(C(=O)O)c1`, for which the concentration for half-maximal inhibition (IC50) is 3.76 µM and the fold change stood at 2.6.

The term IC50 denotes the concentration needed to halve the response being measured.

The values are drawn from PubChem BioAssay AID1419 (Emory University Molecular Libraries Screening Center, 2008).
